Assays:
c-Jun phosphorylation = test: LPS-induced c-Jun phosphorylation in spleen of mice (HTRF); format: in vivo, male C57/B16 mice; details: Mus musculus, po; 20 mg/kg p.o. 30 min before LPS 10 mg/kg i.p.; 1 hour after LPS; versus vehicle-treated animals; read-out: Percentage reduction in the level of P-c-Jun in spleen
Method: (§1) The studies were carried out in male C57/B16 mice. Compounds (20 mg/kg; p.o.) were administered 30 minutes before injection of lipopolysaccharide (LPS). LPS was administered intraperitoneally at a dose of 10 mg/kg. Animals were sacrificed 1 hour following LPS injection. Blood was collected into heparinized tubes for measurement of plasma TNFα levels and spleens were collected for the measurement of c-Jun phosphorylation. Plasma TNFα was measured using an ELISA kit purchased from R&D systems. Spleens were homogenised, extracted in high salt (250 mM NaCl) lysis buffer with phosphatase inhibitors and c-Jun phosphorylation was measured using HTRF. The suppressive effect of compounds was calculated as the percentage reduction of the TNFα level in plasma and P-c-Jun level in spleen as compared with the vehicle-treated animals.

JNK3 = JNK3 (Homo sapiens, UniProt P53779); test: JNK3 SPA assay; format: biochemical; details: 3.33 μM ATP, GST-c-Jun substrate; read-out: IC50 against JNK3
Summary of the method: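 Radiometric SPA using GST-c-Jun with [γ-33P]ATP in 25 mM HEPES pH 7.5 and 10 mM Mg acetate; the substrate solution held 3.33 µM ATP (JNK2/3) or 2 µM ATP (JNK1). Reactions ran 30 min at room temperature and were stopped with glutathione SPA beads plus 40 mM ATP. IC50 is the concentration halving c-Jun phosphorylation versus control.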

TNFα = test: LPS-induced TNFα suppression in mice (plasma TNFα, ELISA); format: in vivo, male C57/B16 mice; details: Mus musculus, po; 20 mg/kg p.o. 30 min before LPS 10 mg/kg i.p.; 1 hour after LPS; versus vehicle-treated animals; read-out: Percentage reduction in the level of TNFα in plasma
Method: as §1

JNK3, sequence (P53779 whole entry, species assumed): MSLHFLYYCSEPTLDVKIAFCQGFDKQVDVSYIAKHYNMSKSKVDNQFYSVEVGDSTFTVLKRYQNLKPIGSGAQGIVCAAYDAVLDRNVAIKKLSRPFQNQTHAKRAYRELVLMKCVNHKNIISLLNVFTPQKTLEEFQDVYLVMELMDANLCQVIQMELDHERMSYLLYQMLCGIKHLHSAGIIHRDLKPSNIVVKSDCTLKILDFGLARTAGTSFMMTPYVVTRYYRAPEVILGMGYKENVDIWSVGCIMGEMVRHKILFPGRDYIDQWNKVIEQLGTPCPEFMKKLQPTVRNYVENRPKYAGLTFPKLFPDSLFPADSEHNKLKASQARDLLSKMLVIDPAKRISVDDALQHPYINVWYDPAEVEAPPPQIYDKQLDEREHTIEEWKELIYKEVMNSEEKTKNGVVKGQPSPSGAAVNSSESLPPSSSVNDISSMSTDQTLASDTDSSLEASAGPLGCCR

IC50 (JNK3) [µM] | Compound | inhibition in vivo at 20 mg/kg (c-Jun phosphorylation) [%] | inhibition in vivo at 20 mg/kg (TNFα) [%]
0.058 | CC1CCC(c2cnc3[nH]cc(-c4cnn(C)c4)c3c2)CC1 (mixture of isomers) [Compound I-3, 3-(1-methyl-1H-pyrazol-4-yl)-5-(4-methylcyclohexyl)-1H-pyrrolo[2,3-b]pyridine] | 0 | 60
0.06 | Cn1cc(-c2c[nH]c3ncc([C@H]4CC[C@@H](N5CCOCC5)CC4)cc23)cn1 [Compound I-7, 4-((1s,4s)-4-(3-(1-methyl-1H-pyrazol-4-yl)-1H-pyrrolo[2,3-b]pyridin-5-yl)cyclohexyl)morpholine] | 18 | 63
0.017 | Cn1cc(-c2c[nH]c3ncc(C4=CCCC4)cc23)cn1 [Compound I-10, 5-cyclopentenyl-3-(1-methyl-1H-pyrazol-4-yl)-1H-pyrrolo[2,3-b]pyridine] | 75 | 62
0.04 | Cn1cc(-c2c[nH]c3ncc(C4CCCCC4)cc23)cn1 [Compound I-16, 5-cyclohexyl-3-(1-methyl-1H-pyrazol-4-yl)-1H-pyrrolo[2,3-b]pyridine] | 20 | 45
0.025 | Cn1cc(-c2c[nH]c3ncc(C4CCC5(CC4)OCCO5)cc23)cn1 [Compound I-19, 5-(1,4-Dioxa-spiro[4.5]dec-8-yl)-3-(1-methyl-1H-pyrazol-4-yl)-1H-pyrrolo[2,3-b]pyridine] | 32 | 9
0.126 | Cn1cc(-c2c[nH]c3ncc([C@H]4CC[C@@H](N5CCCC5)CC4)cc23)cn1 [Compound I-23, 3-(1-methyl-1H-pyrazol-4-yl)-5-((1s,4s)-4-(pyrrolidin-1-yl)cyclohexyl)-1H-pyrrolo[2,3-b]pyridine] | 2 | 61
0.083 | Cn1cc(-c2c[nH]c3ncc([C@H]4CC[C@H](N5CCCC5)CC4)cc23)cn1 [Compound I-24, 3-(1-methyl-1H-pyrazol-4-yl)-5-((1r,4r)-4-(pyrrolidin-1-yl)cyclohexyl)-1H-pyrrolo[2,3-b]pyridine] | 23 | 57
0.09 | CN1CCN([C@H]2CC[C@H](c3cnc4[nH]cc(-c5cnn(C)c5)c4c3)CC2)CC1 [Compound I-25, 3-(1-methyl-1H-pyrazol-4-yl)-5-((1r,4r)-4-(4-methylpiperazin-1-yl)cyclohexyl)-1H-pyrrolo[2,3-b]pyridine] | 25 | 80
0.094 | CN1CCN([C@H]2CC[C@@H](c3cnc4[nH]cc(-c5cnn(C)c5)c4c3)CC2)CC1 [Compound I-26, 3-(1-methyl-1H-pyrazol-4-yl)-5-((1s,4s)-4-(4-methylpiperazin-1-yl)cyclohexyl)-1H-pyrrolo[2,3-b]pyridine] | 16 | 71
0.069 | CN1CCCN([C@H]2CC[C@H](c3cnc4[nH]cc(-c5cnn(C)c5)c4c3)CC2)CC1 [Compound I-37, 5-((1r,4r)-4-(4-methyl-1,4-diazepan-1-yl)cyclohexyl)-3-(1-methyl-1H-pyrazol-4-yl)-1H-pyrrolo[2,3-b]pyridine] | -3 | 51
0.184 | Cn1cc(-c2c[nH]c3ncc([C@H]4CC[C@@H](N5CCCOCC5)CC4)cc23)cn1 [Compound I-39, 4-((1s,4s)-4-(3-(1-methyl-1H-pyrazol-4-yl)-1H-pyrrolo[2,3-b]pyridin-5-yl)cyclohexyl)-1,4-oxazepane] | 10 | 67
0.129 | Cn1cc(-c2c[nH]c3ncc([C@H]4CC[C@H](N5CCCOCC5)CC4)cc23)cn1 [Compound I-40, 4-((1r,4r)-4-(3-(1-methyl-1H-pyrazol-4-yl)-1H-pyrrolo[2,3-b]pyridin-5-yl)cyclohexyl)-1,4-oxazepane] | 35 | 61
0.117 | CC(C)N1CCN([C@H]2CC[C@H](c3cnc4[nH]cc(-c5cnn(C)c5)c4c3)CC2)CC1 [Compound I-43, 5-((1r,4r)-4-(4-isopropylpiperazin-1-yl)cyclohexyl)-3-(1-methyl-1H-pyrazol-4-yl)-1H-pyrrolo[2,3-b]pyridine] | 0 | 74
0.129 | CC(C)N1CCN([C@H]2CC[C@@H](c3cnc4[nH]cc(-c5cnn(C)c5)c4c3)CC2)CC1 [Compound I-44, 5-((1s,4s)-4-(4-isopropylpiperazin-1-yl)cyclohexyl)-3-(1-methyl-1H-pyrazol-4-yl)-1H-pyrrolo[2,3-b]pyridine] | 17 | 58
0.189 | Cn1cc(-c2c[nH]c3ncc([C@H]4CC[C@H](N(C)C)CC4)cc23)cn1 [Compound I-71, (1r,4r)-N,N-dimethyl-4-(3-(1-methyl-1H-pyrazol-4-yl)-1H-pyrrolo[2,3-b]pyridin-5-yl)cyclohexanamine] | 7 | 86
0.259 | Cn1cc(-c2c[nH]c3ncc([C@H]4CC[C@@H](N(C)C)CC4)cc23)cn1 [Compound I-72, (1s,4s)-N,N-dimethyl-4-(3-(1-methyl-1H-pyrazol-4-yl)-1H-pyrrolo[2,3-b]pyridin-5-yl)cyclohexanamine] | 15 | 84
0.076 | Cn1cc(-c2c[nH]c3ncc(C4=CC5CCC4C5)cc23)cn1 (centres unmarked) [Compound I-136, 5-(bicyclo[2.2.1]hept-2-en-2-yl)-3-(1-methyl-1H-pyrazol-4-yl)-1H-pyrrolo[2,3-b]pyridine] | 42 | 87
0.045 | Cn1cc(-c2c[nH]c3ncc(C4CC5CCC4C5)cc23)cn1 (centres unmarked) [Compound I-137, 5-(bicyclo[2.2.1]heptan-2-yl)-3-(1-methyl-1H-pyrazol-4-yl)-1H-pyrrolo[2,3-b]pyridine] | 15 | 45
0.288 | Cn1cc(-c2c[nH]c3ncc(C4=CCCC5C4C5(C)C)cc23)cn1 (centres unmarked) [Compound I-141, 5-(7,7-dimethylbicyclo[4.1.0]hept-2-en-2-yl)-3-(1-methyl-1H-pyrazol-4-yl)-1H-pyrrolo[2,3-b]pyridine] | 4 | 43
0.295 | Cn1cc(-c2c[nH]c3ncc([C@@H]4C[C@H]5O[C@@H]4CC5C#N)cc23)cn1 (stereo partly drawn) [Compound I-157, (1R,4R,5S)-5-(3-(1-methyl-1H-pyrazol-4-yl)-1H-pyrrolo[2,3-b]pyridin-5-yl)-7-oxabicyclo[2.2.1]heptane-2-carbonitrile] | – | –
> 2 | Cn1cc(-c2c[nH]c3ncc([C@]4(F)CC[C@@H](N5CCOCC5)CC4)cc23)cn1 [Compound I-162, 4-((1s,4s)-4-fluoro-4-(3-(1-methyl-1H-pyrazol-4-yl)-1H-pyrrolo[2,3-b]pyridin-5-yl)cyclohexyl)morpholine] | – | –
1.48 | CO[C@]1(c2cnc3[nH]cc(-c4cnn(C)c4)c3c2)CC[C@H](N2CCOCC2)CC1 [Compound I-163, 4-((1s,4s)-4-methoxy-4-(3-(1-methyl-1H-pyrazol-4-yl)-1H-pyrrolo[2,3-b]pyridin-5-yl)cyclohexyl)morpholine] | – | –
0.174 | Cn1cc(-c2c[nH]c3ncc(C4=C[C@H]5O[C@@H]4C[C@H]5C#N)cc23)cn1 [I-155 endo, (1R,2S,4R)-5-(3-(1-methyl-1H-pyrazol-4-yl)-1H-pyrrolo[2,3-b]pyridin-5-yl)-7-oxabicyclo[2.2.1]hept-5-ene-2-carbonitrile] | – | –
0.219 | Cn1cc(-c2c[nH]c3ncc(C4=C[C@H]5O[C@@H]4C[C@@H]5C#N)cc23)cn1 [I-155 exo, (1R,2R,4R)-5-(3-(1-methyl-1H-pyrazol-4-yl)-1H-pyrrolo[2,3-b]pyridin-5-yl)-7-oxabicyclo[2.2.1]hept-5-ene-2-carbonitrile] | – | –

Compound | IC50 (JNK3) [µM] | inhibition in vivo at 20 mg/kg (c-Jun phosphorylation) [%] | inhibition in vivo at 20 mg/kg (TNFα) [%]
Mixture of 3-(1-methyl-1H-pyrazol-4-yl)-5-(3,5,5-trimethylcyclohex-1-enyl)-1H-pyrrolo[2,3-b]pyridine and 3-(1-methyl-1H-pyrazol-4-yl)-5-(3,3,5-trimethylcyclohex-1-enyl)-1H-pyrrolo[2,3-b]pyridine [Compound I-68] | 0.76 | – | –
Mixture of 3-(1-methyl-1H-pyrazol-4-yl)-5-(5-methylcyclohex-1-enyl)-1H-pyrrolo[2,3-b]pyridine and 3-(1-methyl-1H-pyrazol-4-yl)-5-(3-methylcyclohex-1-enyl)-1H-pyrrolo[2,3-b]pyridine [Compound I-29] | 0.098 | – | –
Mixture of 3-(1-methyl-1H-pyrazol-4-yl)-5-(6-methylcyclohex-1-enyl)-1H-pyrrolo[2,3-b]pyridine and 3-(1-methyl-1H-pyrazol-4-yl)-5-(2-methylcyclohex-1-enyl)-1H-pyrrolo[2,3-b]pyridine [Compound I-30] | 0.17 | – | –
